Values of other authors as cited in patent US20230165895A1, “COMPOSITIONS AND METHODS FOR EYE HEAL TH COMPRISING AREDS AND VITAMIN B COMPLEX” (BAUSCH + LOMB IRELAND LIMITED, priority 2020, published 2023).

Conditions: no test, species or source described; stated next to the RDA

## Cc1c(C)c2c(c(C)c1O)CC[C@@](C)(CCC[C@H](C)CCC[C@H](C)CCCC(C)C)O2 [vitamin E, alpha tocopherol]
  levels at which no adverse effects have been observed: ≤ 800.0 mg
